Assays:
4T1 tumors = experiment: 4T1 mouse triple negative breast cancer model in Balb/C mice; format: in vivo
Description: 6-8 week-old Balb/C mice were injected with 0.1 million of 4T1 cells in the mammary fat pad. On day 5, mice were randomized to 4 treatment groups, PBS, 6D9 (10 mg/kg), Gemcitabine (75 mg/kg), and 6D9 (10 mg/kg) plus gemcitabine (75 mg/kg). All treatments were by intraperitoneal injection and mice received a total of 5 treatments on days 5, 8, 12, 14, and 16.
The tumors and lymph nodes were harvested from these mice, and cells were dissociated and subjected to immune cell profiling by flow cytometry analysis.

human monocytes = experiment: Cytokine treatment of monocytes, expression of VTCN1, PD-L1, CD80 by flow cytometry; format: cell-based; conditions: 24, 48, or 73 hours
Description: VTCN1 is expressed in monocytes and macrophages in a tumor microenviroment, the expression induced by cytokines in tumor microenviroment. VTCN1 positive macrophages inhibit T cell activation. Monocytes from healthy donors were treated with IFNγ and IL-6 to assess VTCN1 expression. Monocytes were enriched from fresh PBMC from healthy donor using a monocyte enrichment kit from Stemcell Technologies, and the purity of the obtained monocytes is greater than 95%. Monocytes were cultured in 24 well plate with different concentration of INFγ or LI-6 for 24, 48, or 73 hours, expression of VTCN1, PD-L1, and CD80 was assessed by flow cytometry. […] CD80 was expressed at low level in monocytes, and is not very responsive to cytokine treatment.

Nc1ccn([C@@H]2O[C@H](CO)[C@@H](O)C2(F)F)c(=O)n1 [Gemcitabine, gemcitabine]
4T1 tumor growth (4T1 tumors; 6D9 10 mg/kg, gemcitabine 75 mg/kg, i.p., days 5, 8, 12, 14, 16): totally inhibited tumor growth at the early stage of the study with tumor regrowth after 30 days | tumor-free mice (complete response; CR) at end of study on day 65 (4T1 tumors; mouse, in vivo): none of the mice in the gemcitabine alone group were tumor-free

IL6: cytokine added to human monocyte cultures
VTCN1 and PD-L1 expression in monocytes (human monocytes): VTCN1 and PD-L1 expression was induced
